# Several values for one entry are separate records, joined by “and”; a condition that tells them apart may be missing. Identical values can stand only once.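 Exposure lasted 48 hours, with cells grown in 96-well plates and compounds tested at five concentrations. The concentration for 50% growth inhibition is given as GI50. The concentration for full growth arrest is given as TGI.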
# Tests used:
# Assay in all cases: NCI-60 cell line screen, 48 h
# [1] = system: HCC-2998 colon
# [2] = system: HOP-62 NSCLC
# [3] = system: HOP-92 NSCLC
# [4] = system: KM12 colon
# [5] = system: LOX IMVI melanoma
# [6] = system: SF-268 CNS
# [7] = system: SF-295 CNS
# [8] = system: SK-OV-3 ovarian
# [9] = system: SNB-75 CNS
# [10] = system: UO-31 renal
SMILES,GI50 [1],TGI [1],GI50 [2],TGI [2],GI50 [3],TGI [3],GI50 [4],TGI [4],GI50 [5] [µM],TGI [5],GI50 [6],TGI [6],GI50 [7],TGI [7],GI50 [8],TGI [8],GI50 [9],TGI [9],GI50 [10],TGI [10]
CC[C@H](CC#N)OC(=O)N[C@@H](C)c1cccc(NC(=O)Nc2ccc(-c3cnco3)c(OC)c2)c1,0.142 µM,51.6 µM,0.0856 µM,36.8 µM,2.46 µM,44.7 µM,0.0715 µM,18.1 µM,0.0242,24.8 µM,0.074 µM,51.3 µM,0.0532 µM,13 µM,0.0722 µM,> 63.8 µM,0.11 µM,27.8 µM,0.446 µM,10.3 µM
COc1cc([C@@H]2c3cc4c(cc3[C@@H](NC(=O)c3ccccc3)C3COC(=O)[C@@H]32)OCO4)cc(OC)c1O (some centres undefined),–,35.4 µM,–,13 µM,–,87.9 µM,–,28.3 µM,–,25.1 µM,–,> 100 µM,–,> 100 µM,–,> 100 µM,–,38 µM,–,23.5 µM
O=C1C(Cl)=C(Nc2cccc(O)c2)C(=O)N1c1cc(Cl)c(Cl)cc1Cl,19.1 µM,34.8 µM,21.3 µM,36.9 µM,12.5 µM,26.2 µM,16.5 µM,34.3 µM,13,28 µM,19.5 µM,42.5 µM,20.6 µM,53.2 µM,20.8 µM,65.3 µM,16.4 µM,31.3 µM,13.5 µM,26.4 µM
Oc1ccc(CCCCCCc2ccc(O)cc2)cc1,11 µM,23.2 µM,10.3 µM,23.4 µM,6.99 µM,20.5 µM,6.54 µM,19.8 µM,1.5,17.9 µM,3.89 µM,17.5 µM,3.18 µM,15.5 µM,11.8 µM,34.1 µM,11.6 µM,35.3 µM,2.36 µM,15 µM
CC(=O)Nc1ccc2c(c1)oc(=O)c1cc(NC(C)=O)ccc12,52.4 µM,> 100 µM,> 100 µM,> 100 µM,29.6 µM,> 100 µM,21.7 µM,52.5 µM,75.6,> 100 µM,50.5 µM,> 100 µM,> 100 µM,> 100 µM,> 100 µM,> 100 µM,> 100 µM,> 100 µM,> 100 µM,> 100 µM
O=C1/C(=C/c2ccc(O)cc2)COc2ccc(-c3ccccc3)cc21,4.08 µM,11.2 µM,19.3 µM,36.4 µM,7.63 µM,31 µM,2.28 µM,7.54 µM,3.54,13.3 µM,5.49 µM,22.8 µM,6.8 µM,24.7 µM,21.4 µM,46.1 µM,5.17 µM,15.5 µM,4.64 µM,23.4 µM
CCN(Cc1ccccc1OC)c1ccc(CO)c(Cl)c1,10.7 µM,24.5 µM,3.16 µM,16.4 µM,1.66 µM,8.51 µM,11 µM,25.8 µM,15.1,29.6 µM,15.1 µM,30.7 µM,2.71 µM,15.3 µM,7.15 µM,20.9 µM,9.47 µM,26.5 µM,11.5 µM,24.7 µM
OCc1ccc(-c2nn(Cc3ccccc3)c3ccccc23)o1,15.5 µM and 14.8 µM,36.6 µM and 28 µM,15.8 µM and 2.86 µM,53.8 µM and 30.2 µM,10.4 µM and 12.2 µM,38.9 µM and 38.1 µM,16.9 µM and 16.6 µM,35.2 µM and 34.5 µM,14.6,29.8 µM and 27.7 µM,18.6 µM and 19 µM,65.8 µM and 51.1 µM,13.4 µM and 18.5 µM,33.7 µM and 46 µM,20.7 µM and 17.6 µM,57.1 µM and 43.9 µM,11.7 µM and > 100 µM,47.2 µM and > 100 µM,13.7 µM and 23.8 µM,57.4 µM and > 84.7 µM
CC(=O)Oc1ccc(O)c(O)c1C/C=C(\C)CC/C=C(\C)CC/C=C(\C)CCC=C(C)C,–,2.26 µM,–,2.81 µM,–,0.886 µM,–,11.5 µM,–,0.694 µM,–,2.18 µM,–,4.27 µM,–,–,–,1.92 µM,–,2.74 µM
CC(C)(C)c1ccc(S(=O)(=O)N[C@H]2CC[C@H]3[C@@H]4CCc5cc(OS(=O)(=O)O)ccc5[C@H]4CC[C@]23C)cc1,4.09 µM,13.1 µM,2.87 µM,7.81 µM,2.11 µM,5.31 µM,2.08 µM,4.01 µM,1.7,3.11 µM,3.14 µM,11.5 µM,2.51 µM,6.76 µM,2.92 µM,8.54 µM,2.03 µM,6.11 µM,1.8 µM,4.4 µM
CC(CNC(Cc1ccccc1)c1ccccc1)NC(Cc1ccccc1)c1ccccc1 (centres undefined),2.03 µM,4.45 µM,3.41 µM,12.4 µM,1.83 µM,4.09 µM,2.36 µM,5.85 µM,1.62,2.98 µM,3.6 µM,14.3 µM,1.52 µM,3.27 µM,5.34 µM,16.8 µM,2.07 µM,11.7 µM,1.87 µM,6.06 µM
CC(=O)NC1=C(C)C(=O)c2c(nc3n2CCC3O)C1=N (centres undefined),–,45.7 µM,–,> 100 µM,–,15.3 µM,–,34.3 µM,–,19.2 µM,–,22.3 µM,–,38 µM,–,97.1 µM,–,49.1 µM,–,46.6 µM
Clc1nc(Cl)c2ncn(Cc3ccc(COc4cccc(OCc5ccc(Cn6cnc7c(Cl)nc(Cl)nc76)cc5)c4)cc3)c2n1,17.9 µM,35.8 µM,63.4 µM,> 100 µM,36.2 µM,> 100 µM,58.2 µM,> 100 µM,2.47,12.7 µM,> 100 µM,> 100 µM,98.4 µM,> 100 µM,> 100 µM,> 100 µM,8.39 µM,> 100 µM,51.5 µM,> 100 µM
